PMC11062894, “Protein-based bandpass filters for controlling cellular signaling with chemical inputs” (Nature Chemical Biology, 2023)
Where “and” joins values, the source holds several entries; their conditions need not be identical. Identical values can stand only once.

Test system: GEMS receptors with CBPA11 (BclXL–LD3 and BclXLhigh variants), STAT3-driven SEAP in HEK293T cells
Assay: GEMS SEAP reporter assay, CBPA11 (BclXLhigh, LD3-v and BclXL-v variants) with A-1155463
Type: cell-based
Set-up: key to Raw data (SEAP) / SEAP, replicate values / Raw data of Figure 5b / Raw data Figure 5e / Raw data of Independent repeat of CBPA11-v1 vs CBPA11-v1-LD3v3 / Raw data of Independent repeat of CBPA11-v3 vs CBPA11-v3-LD3v3 / Raw data of Figure 5b, CBPA11-v1-LD3v3 (SEAP reporter raw value, single replicate) / Raw data of Figure 5b, CBPA11-v1 (SEAP reporter raw value, single replicate): SEAP activity in U/L in culture supernatant
Conditions: for Normalized data (SEAP) / Raw data (SEAP): SuppFigure 9c, LD3v3
From the text: To rationally design a CBP responding to a chemical input, we used BclXL as the druglow receptor, LD3 as the designed binder and a designed BclXL variant as the drughigh receptor (referred to as BclXLhigh) to construct a CBP responsive to BclXL inhibitors (Fig. 4a). To design BclXLhigh, we used a multistate design computational protocol described elsewhere[26] […] Thus, BclXLhigh-v(1–3) were chosen as the functional drughigh receptors, resulting in three A-1155463-controlled CBPs (referred to as CBPA11-v(1–3)) (Fig. 4c–e).
HEK293T cells were seeded in a 96-well plate 24 h before transfection. The transfection mix in each well consisted of 3 ng of constitutive human CMV promoter driven mammalian STAT3 expression vector (PhCMV-STAT3-pA), 30 ng of STAT3-induced reporter expression (OStat3-PhCMVmin-SEAP-pA) and 50 ng of expression vectors for each GEMS receptor chain (PSV40-IgK-(drughigh receptor)-EpoRm-IL-6RBm-pA and PSV40-IgK-(druglow receptor-GGGGSX3-LD3)-EpoRm-IL-6RBm-pA). For the specific drughigh receptor and druglow receptor used in the different cellular assays, they are indicated as wild type or with mutations. Then, plasmid DNA was mixed with 50 μl opti-MEM (Thermo Fisher) and 600 ng of polyethyleneimine (Polysciences, catalog no. 24765-1). For drug treatment experiments, drugs were added 12 h post-transfection and incubated with cells for 24 h before the SEAP reporter detection assay.
SEAP activity (U l^−1) in cell culture supernatants was quantified by kinetic measurements at 405 nm (1 minute per measurement for 30 cycles) of absorbance increase due to phosphatase-mediated hydrolysis of para-nitrophenyl phosphate (pNPP).
Binding affinities of SPR drug competition assays were calculated using three-parameter nonlinear regression in GraphPad Prism (v.8.3.0). Representative data of cell assays are presented as individual values and mean values (bars). n = 3 refers to biological replicates. All IC50 or EC50 values of cell assays reported were calculated using four-parameter nonlinear regression ± s.d. Bandpass features of cutoff concentrations and Bandwidth90% were estimated based on the curve fitted using bell-shaped curve nonlinear regression in GraphPad Prism (v.8.3.0). […]
Supplementary Figure 4: Design, screening and validation of BclXLhigh variants. a) Screening of BclXLhigh variants in the GEMS platform. […]
Dissociation constant measurement of BclXLhigh-v(1-3) and LD3. Equilibrium curves are fitted using […]
BclXLhigh-v1 (purple), BclXLhigh-v2 (blue), […]
a) Bcl2high-based bandpass filter designs were developed and to respond to different concentrations of […]
corresponding inhibitor. c) Screening of Bcl2high-based bandpass filter variants in the GEMS platform.
The designed binder LD3 was fused to the druglow-receptor (PSV40-IgK-Bcl2-LD3-EpoRm-IL-6RBm-pA) in one EpoR chain and Bcl2high variants with the insensitive Bcl2 (iBcl2) as control in the other EpoR chain (PSV40-IgK-Bcl2high-EpoRm-IL-6RBm-pA). HEK293T cells were transfected with indicated […]
the mean of six biological replicates ± s.d., overlaid with a scatter dot plot of the original data points.
(1 picture or pasted object on this page, not shown here)
Supplementary Figure 6: Binding affinities and drug resistances of Bcl2high-v(2,4,5) assessed by […]
a) Measurement of dissociation constants for Bcl2high-v(2,4,5) and LD3 interactions. Equilibrium curves […]
Bcl2high-v(2,4,5) measured by SPR. 5 μM of Bcl2 or indicated variants were mixed with 10 μM of […]
Bcl2high-v2 (red), Bcl2high-v4
Supplementary Figure 7: Screening of LD3 variants in CBPA11-v(1-3) and raw data of CBPA11-v(1,3) with LD3-v3 variant. a-c) Screening of LD3 and LD3-v(1-3) variants in complex with BclXL for more sensitive CBPA11-v1 (a), CBPA11-v2 (b), CBPA11-v3 (c) in the GEMS platform. The LD3 variants replaced the role of LD3 (PSV40-IgK-BclXL-LD3-v(1-3)-EpoRm-IL-6RBm-pA) in one EpoR chain and BclXLhigh-v(1-3) in the other EpoR chain (PSV40-IgK-BclXLhigh-V(1-3)-EpoRm-IL-6RBm-pA). HEK293T cells were transfected with […]

CN(C)CC#Cc1ccc(OCCCc2sc(N3CCc4cccc(C(=O)Nc5nc6ccccc6s5)c4C3)nc2C(=O)O)c(F)c1 [A-1155463]
Normalized data (SEAP) (A-1155463 10 nM): 57.1742
Raw data (SEAP) (A-1155463 10 nM): 4.199
Normalized data (SEAP) (A-1155463 31.6 nM): 64.0307
Raw data (SEAP) (A-1155463 31.6 nM): 4.702
Normalized data (SEAP) (A-1155463 100 nM): 100
Raw data (SEAP) (A-1155463 100 nM): 7.344
Normalized data (SEAP) (A-1155463 316 nM): 98.6857
Raw data (SEAP) (A-1155463 316 nM): 7.247
Normalized data (SEAP) (A-1155463 1000 nM): 76.9661
Raw data (SEAP) (A-1155463 1000 nM): 5.652
Normalized data (SEAP) (A-1155463 3160 nM): 98.598
Raw data (SEAP) (A-1155463 3160 nM): 7.241
Normalized data (SEAP) (A-1155463 10000 nM): 93.3297
Raw data (SEAP) (A-1155463 10000 nM): 6.854
SEAP, replicate values (Supplementary Figure 9e, CBPA11-v3-BclXLv2, A-1155463 1 nM): 84.4482 and 81.7463 and 104.541
SEAP, replicate values (Supplementary Figure 9e, CBPA11-v3-BclXLv2, A-1155463 3.18 nM): 146.322 and 134.178 and 165.303
SEAP, replicate values (Supplementary Figure 9e, CBPA11-v3-BclXLv2, A-1155463 10 nM): 324.719 and 293.474 and 344.378
SEAP, replicate values (Supplementary Figure 9e, CBPA11-v3-BclXLv2, A-1155463 31.8 nM): 360.563 and 353.899 and 371.872
SEAP, replicate values (Supplementary Figure 9e, CBPA11-v3-BclXLv2, A-1155463 100 nM): 397.777 and 391.029 and 415.369
SEAP, replicate values (Supplementary Figure 9e, CBPA11-v3-BclXLv2, A-1155463 318 nM): 374.208 and 326.503 and 405.592
SEAP, replicate values (Supplementary Figure 9e, CBPA11-v3-BclXLv2, A-1155463 1000 nM): 326.827 and 274.864 and 352.239
SEAP, replicate values (Supplementary Figure 9e, CBPA11-v3-BclXLv2, A-1155463 3180 nM): 224.895 and 197.696 and 225.125
SEAP, replicate values (Supplementary Figure 9e, CBPA11-v3, A-1155463 1 nM): 77.8998 and 72.2772 and 68.2722
SEAP, replicate values (Supplementary Figure 9e, CBPA11-v3, A-1155463 3.18 nM): 101.26 and 74.5174 and 69.017
SEAP, replicate values (Supplementary Figure 9e, CBPA11-v3, A-1155463 10 nM): 279.56 and 237.506 and 229.509
SEAP, replicate values (Supplementary Figure 9e, CBPA11-v3, A-1155463 31.8 nM): 420.603 and 418.534 and 369.593
SEAP, replicate values (Supplementary Figure 9e, CBPA11-v3, A-1155463 100 nM): 495.942 and 494.207 and 527.219
SEAP, replicate values (Supplementary Figure 9e, CBPA11-v3, A-1155463 318 nM): 528.894 and 526.095 and 525.969
SEAP, replicate values (Supplementary Figure 9e, CBPA11-v3, A-1155463 1000 nM): 429.812 and 444.52 and 449.13
SEAP, replicate values (Supplementary Figure 9e, CBPA11-v3, A-1155463 3180 nM): 188.374
SEAP, replicate values (Supplementary Figure 9d, CBPA11-v1-BclXLv2, A-1155463 1 nM): 111.205 and 87.5973 and 101.043
SEAP, replicate values (Supplementary Figure 9d, CBPA11-v1-BclXLv2, A-1155463 3.18 nM): 157.154 and 178.429 and 193.635
SEAP, replicate values (Supplementary Figure 9d, CBPA11-v1-BclXLv2, A-1155463 10 nM): 436.402 and 372.407 and 451.931
SEAP, replicate values (Supplementary Figure 9d, CBPA11-v1-BclXLv2, A-1155463 31.8 nM): 433.431 and 447.679 and 460.586
SEAP, replicate values (Supplementary Figure 9d, CBPA11-v1-BclXLv2, A-1155463 100 nM): 510.537 and 467.35 and 481.779
SEAP, replicate values (Supplementary Figure 9d, CBPA11-v1-BclXLv2, A-1155463 318 nM): 466.109 and 461.812 and 531.315
SEAP, replicate values (Supplementary Figure 9d, CBPA11-v1-BclXLv2, A-1155463 1000 nM): 444.141 and 425.472 and 444.224
SEAP, replicate values (Supplementary Figure 9d, CBPA11-v1-BclXLv2, A-1155463 3180 nM): 353.967 and 340.947 and 373.905
SEAP, replicate values (Supplementary Figure 9d, CBPA11-v1-BclXLv2, A-1155463 10000 nM): 194.487 and 169.62 and 189.065
SEAP, replicate values (Supplementary Figure 9d, CBPA11-v1, A-1155463 1 nM): 63.0929 and 67.5149 and 84.3456
SEAP, replicate values (Supplementary Figure 9d, CBPA11-v1, A-1155463 3.18 nM): 70.097 and 95.813 and 111.853
SEAP, replicate values (Supplementary Figure 9d, CBPA11-v1, A-1155463 10 nM): 455.879 and 489.769 and 488.832
SEAP, replicate values (Supplementary Figure 9d, CBPA11-v1, A-1155463 31.8 nM): 620.201 and 681.136 and 678.515
SEAP, replicate values (Supplementary Figure 9d, CBPA11-v1, A-1155463 100 nM): 962.669 and 957.215 and 954.472
SEAP, replicate values (Supplementary Figure 9d, CBPA11-v1, A-1155463 318 nM): 973.295 and 858.467 and 847.573
SEAP, replicate values (Supplementary Figure 9d, CBPA11-v1, A-1155463 1000 nM): 855.269 and 763.206 and 684.986
SEAP, replicate values (Supplementary Figure 9d, CBPA11-v1, A-1155463 3180 nM): 503.783 and 501.256 and 493.903
SEAP, replicate values (Supplementary Figure 9d, CBPA11-v1, A-1155463 10000 nM): 194.615 and 191.032 and 215.159
